Here are results for 99 compounds from ChEMBL document CHEMBL3507680, “University of Dundee, Gates Library screen for HepG2 cell viability”.

The series can be described thus: Human HepG2 cell viability assay in 384 well format. Format: toxicity, cell-based. Set-up: dose 125 nL, time 70.5 hour; cytotoxicity at 70.5 h: concentration not given beside the values. The following applies: HepG2 cells, read-out: Inhibition.
`O=C(c1coc(COc2cccc3cnccc23)n1)N1CCCCCC1`: the cytotoxicity at 70.5 h was -1.27%. For `CCOC(C)c1noc(CN(C)C(=O)C2C(C)(C)C2(C)C)n1` (centres undefined), the cytotoxicity at 70.5 h was -2.89%. As for `CC(C)c1nn(CC(=O)N2CCCC2)c(=O)c2c1cnn2C(C)(C)C`, the figure is 14.2%; as for `O=C1N(Cc2cccc(F)c2F)CCCC1(O)CNCC1CCCCC1` (centres undefined), 0.845%.

In the case of `C[C@@H]1CN(C(=O)c2ccccc2F)C[C@]12CCN(CCN(C)C)C2=O`, the cytotoxicity at 70.5 h was -13.1%. `CNCC(=O)Nc1cccc(-c2cnc(NCCS(C)(=O)=O)nc2)c1`: the cytotoxicity at 70.5 h came out at 0.0271%. As for `NC(=O)N1CC[C@@H]2O[C@@H](COCC(=O)N3CCCC3)CC[C@@H]21`, the figure is 24%; as for `O=C(CS(=O)(=O)Cc1nnnn1C1CC1)NCCc1ccccc1`, -3.81%. As for `CNC(=O)C1CN(C(C)C)CCN1c1ncccn1` (centres undefined), the figure is 2.44%; as for `Cc1ccc(C(C)NC(=O)N2CCN(C(=O)CC(F)(F)F)CC2)o1` (centres undefined), -3.77%.

On to `CNc1cc(C2CN(Cc3coc(C)n3)CCO2)nc(C)n1` (centres undefined), for which the cytotoxicity at 70.5 h was -8.75%. The value for `Cc1cccc(CN2CCCC(O)(CNCc3ncccc3C)C2=O)c1` (centres undefined) was -7.55%; that for `c1cc([C@H]2C[C@@H]3CCN(Cc4nccs4)C[C@H]3O2)ncn1` was -3.39%.

As to `Cn1ncc2c1CCCC2NCc1cccc(OC2CCCC2)c1` (centres undefined), the cytotoxicity at 70.5 h was -5.51%.

For the compound `CC(=O)N1CCN(C2CCCCc3ccccc32)CC1` (centres undefined), the cytotoxicity at 70.5 h was -1.72%. As for `CS(=O)(=O)NCc1nnc2n1CCN(Cc1cccnc1)C2`, the figure is 18.3%. In the case of `CN(C)c1ccnc(C2CCCN2)n1` (centres undefined), the cytotoxicity at 70.5 h was -3.83%. As for `COCCC1(C(=O)O)CCCN(C(=O)c2cc(F)ccc2OC)C1` (centres undefined), the figure is -10.6%; as for `CCCSCC(=O)N1CCN(c2ccc(C)cc2)CC1C` (centres undefined), -14.9%.

For the compound `CCOCc1ccccc1NC(=O)NCC(C)(O)c1cc(C)oc1C` (centres undefined), the cytotoxicity at 70.5 h was -1.67%. With `Cc1cnc(CN(C)CC2CCCN2c2cccnn2)cn1` (centres undefined), the cytotoxicity at 70.5 h is 14.1%. The value for `Cc1cccc(CN2C[C@@H]3OCCN(S(=O)(=O)N(C)C)[C@@H]3C2)c1` was -2.05%. As for `CCn1nc(C)c2nc(C(C)C)nc(NC)c21`, the figure is 20.9%; as for `Cn1cnc2c1CCN(Cc1c(Cl)ccc3cccnc13)C2`, 0.125%. The value for `Cc1cnn(CC2CN(Cc3nc4ccccc4o3)CCO2)c1` (centres undefined) was -12.1%; that for `COc1ccccc1C1=NOC(CC2(C(=O)O)CCOCC2)C1` (centres undefined) was 19.1%. On to `c1ccc(-c2nc(CN3CCOC(Cn4cccn4)C3)no2)cc1` (centres undefined), for which the cytotoxicity at 70.5 h is 2.47%. The value for `Cc1cnc(C)c(-c2cc(O)c3c(c2)CN(Cc2nccs2)CCO3)n1` was -4.63%; that for `CCS(=O)(=O)N1CCC(c2nnc(CN3CCCCC3)n2C)CC1` was -3.65%. Turning to `Cc1cc(C(=O)N2CCCC2)ccc1NCc1nc(CC(C)C)no1`, the cytotoxicity at 70.5 h is -9.73%.

For `O=C(NCc1ccco1)[C@H]1COC[C@H]2CN(Cc3ccoc3)C[C@H]21`, the cytotoxicity at 70.5 h was 13.6%. As for `N#CC1COCCN1S(=O)(=O)c1ccc2ccccc2c1` (centres undefined), the figure is -1.81%; as for `COCCN1CCN(C(=O)NC2CC2)Cc2ccc(C)nc21`, -12.1%. For the compound `CC[C@H]1N(Cc2ccc(OC)cc2)CCC[C@]12CCC(=O)N2C`, the cytotoxicity at 70.5 h was -13%. The value for `CNc1nc(C(=O)N2C[C@H]3CC[C@@H]2CN(C2CCOCC2)C3)cs1` was -10.2%; that for `COCCN1CCC(NCc2cccc(F)c2)C1` (centres undefined) was 26.3%. Regarding `CCN(CC)S(=O)(=O)NCC1Cc2ccccc2O1` (centres undefined), the cytotoxicity at 70.5 h is -3.76%.

With `Cc1ccc(C(C(=O)O)N(C)CCCN2CCOCC2)c(C)c1` (centres undefined), the cytotoxicity at 70.5 h was -8.61%. As for `CC(=O)N1CCC(Oc2ccc(C#N)cc2)CC1`, the figure is 9.28%; as for `Cn1cc(CN2CCCN(C(=O)c3cc(Cl)cn3C)CC2)cn1`, 38.5%; as for `COc1cc2c(cc1-c1nc3c(cnn3C(C)C)[nH]1)OCO2`, -0.0981%. As for `CCc1nc2n(n1)CC(NCc1cnn(Cc3ccccc3)c1)CC2` (centres undefined), the figure is -5.29%; as for `CCN1C[C@H]2C[C@H](C(=O)Nc3ccccc3)[C@@H](C1)O2`, 16.4%; as for `CNc1ncc(C(=O)N2CCCC(CO)(CCCOC)C2)cn1` (centres undefined), 4.14%.

In the case of `CC(C)C1CN(S(C)(=O)=O)CCCN1Cc1ccc(F)cc1` (centres undefined), the cytotoxicity at 70.5 h is -3.17%.

As for `CN(C)C(=O)c1cn[nH]c1C1(C)CCN(c2ncccn2)CC1`, the cytotoxicity at 70.5 h came out at 2.96%.

As to `COc1ccc(F)cc1S(=O)(=O)NCCn1cnc(C)cc1=O`, the cytotoxicity at 70.5 h was -12.5%. As for `COc1ncccc1C(=O)N1CCCC1c1c(C)nn(C)c1Cl` (centres undefined), the figure is -0.671%; as for `O=c1oc(-c2ccc(F)cc2)nn1CN1CCN(CC2CC2)CC1`, -21.3%; as for `CCC(NC(=O)NCc1cccc(N(C)C)n1)c1nccs1` (centres undefined), 32.1%.

`CCOC(=O)N[C@H]1C[C@@H](C(=O)NCc2cccc(Cl)c2)N(C)C1`: the cytotoxicity at 70.5 h is -20.9%. On to `CS(=O)(=O)NCc1cnc2n1CCN(Cc1cccnc1)CC2`, for which the cytotoxicity at 70.5 h is -9.03%. `Cc1nc(C2CCCN(C(=O)CO)C2)cc(N2CCOCC2)n1` (centres undefined): the cytotoxicity at 70.5 h is -4.97%. The value for `CC(C)c1nnc2n1CCN(CC(=O)N1CCc3sccc3C1)C2` was -6.79%; that for `COCCC1(CO)CCCN(C(=O)c2ccc(C(C)C)[nH]c2=O)C1` (centres undefined) was 11.1%. The value for `CCCN1CCCC2(CCN(S(=O)(=O)N3CCC(OC)CC3)C2)C1=O` (centres undefined) was -1.84%. As for `CC(C)(O)CCc1cccc(C(=O)N2CCC3(CCOCC3)CC2)c1`, the figure is -2.42%. Turning to `CCOCC(=O)N1CCC(C(O)c2ccc(F)cc2)CC1` (centres undefined), the cytotoxicity at 70.5 h amounted to 2.49%.

`O=C([C@H]1CCCO1)N1CCC2(CC1)CNCc1ccccc12`: the cytotoxicity at 70.5 h was found to be 8.83%. The value for `O=C(c1cnn[nH]1)N(Cc1ccncc1)CC1CCCO1` (centres undefined) was -0.844%; that for `Cc1ccc(C(=O)Nc2ccn(CCC(N)=O)n2)cc1` was -3.18%.

Consider `OCc1ccc(-c2c(-c3ccccc3)ncn2CCN2CCOCC2)o1`, for which the cytotoxicity at 70.5 h turned out to be 16.6%.

As for `O=c1[nH]cnc2[nH]c(N3CCCCC3)nc12`, the cytotoxicity at 70.5 h is -5.16%. With `O=S(=O)(NC1CCOC1)c1ccc(C(F)(F)F)nc1` (centres undefined), the cytotoxicity at 70.5 h was -2.28%. The value for `Cc1ccc(NC(=O)CCc2ccco2)cc1N1CCOC1=O` was -10.1%; that for `CN(CCN1CCOCC1)C(=O)CCc1cccc(Cl)c1` was 20.6%; that for `Cn1c(C2CC2)nc2cc(NC(=O)C3CC=CC3)ccc21` was -5.03%. On to `CC(C)C(=O)N1CCC2(COCc3cnc(-c4cccnc4)nc32)C1` (centres undefined), for which the cytotoxicity at 70.5 h was -7.75%. As for `CCN1C[C@H]2C3(CCN(C(=O)NC(C)C)CC3)CC[C@@]2(C(=O)N(C)C)C1`, the figure is -8.21%.

With `O=C1O[C@@H]2CN(Cc3ccccn3)C[C@@H]2N1CCCc1ccc(F)cc1`, the cytotoxicity at 70.5 h stood at 6.23%. The value for `Cc1nc[nH]c1CNCc1cccnc1N(C)C1CCCCC1` was -6%; that for `CN(CCC(O)c1ccccc1)Cc1nc(-c2ccccc2)no1` (centres undefined) was -7.98%; that for `CCOn1c(SC(C)C)nc2ccccc2c1=O` was -8.12%. The value for `Cc1cc(-c2cnc(C3CC3)nc2CN(C)C(=O)c2ccccn2)on1` was -2.22%; that for `CCN1CCOC(CNCc2csc(C)n2)C1` (centres undefined) was -14.2%; that for `CN(CCn1cccn1)S(=O)(=O)c1cccc(F)c1C#N` was -9.35%. The value for `CCN(C(=O)c1ccc2c(c1)OCO2)C1CC(=O)NC1=O` (centres undefined) was -6.4%; that for `O=C(NC1CCOCC1)C1CC(=O)N(Cc2ccccn2)C1` (centres undefined) was -2.88%.

In the case of `Cc1noc([C@]23COC[C@H]2CN(C(=O)C2CCOCC2)C3)n1`, the cytotoxicity at 70.5 h was -4.92%. The value for `Cc1ccc(NC2CCN(C(=O)c3ccc(Cl)cc3F)CC2)nn1` was 23.4%; that for `CC(C)c1n[nH]c(C2CN(C(=O)CCCn3cccn3)CCO2)n1` (centres undefined) was -3.52%; that for `CCc1ccc(C2COCCN2C(=O)NCc2cccc(C#N)c2)o1` (centres undefined) was -9.17%.

As to `O=C1C(N2CCN(c3ccc(O)cc3)CC2)CCN1C1CCOCC1` (centres undefined), the cytotoxicity at 70.5 h worked out at 24.5%. As for `COc1cccc(CNCCNS(=O)(=O)Cc2ccccc2)c1`, the figure is -6.4%. The value for `O=S1(=O)CCC(N2CCN(c3cc(C(F)(F)F)ccn3)CC2)C1` (centres undefined) was 1.03%. As for `O=C(COCC1CC1)N1CCCC(n2cncn2)C1` (centres undefined), the figure is -9.93%; as for `CN(CCCc1ccc(C(F)(F)F)cc1)Cc1nccn1C`, -12%. Turning to `CN(C(=O)Cc1ccn(C)c1)C1CCCN(C2Cc3ccccc3C2)C1` (centres undefined), the cytotoxicity at 70.5 h is 1.52%. The value for `CC(O)CN1CCC(CNCc2ccccc2F)CC1` (centres undefined) was -1.41%; that for `c1cc(CNCC2CNc3ccnn3C2)cc(OC2CCCC2)n1` (centres undefined) was -5.92%; that for `O=C1NCCN1C1CCN(Cc2coc(-c3ccccc3)n2)CC1` was 20.6%. As for `CCCOCC1CCN(C(=O)Cn2cccc(C(F)(F)F)c2=O)C1` (centres undefined), the figure is 3.49%; as for `COC(=O)CCN1CCCC1c1ccccc1Cl` (centres undefined), -6.47%. `CCc1ccc(NC(=O)C(C)N2CCN(Cc3ncc[nH]3)CC2)cc1` (centres undefined): the cytotoxicity at 70.5 h was -2.82%. As for `O=C(NCC(F)F)c1ccc(S(=O)(=O)NCCc2ccncc2)cc1`, the figure is -11.1%; as for `CC(C)(C)OC(=O)NC(C)(C)c1noc(Cn2ccnc2)n1`, -4.72%; as for `CC(NC(=O)Cc1ccon1)c1ccc(OCC2CC2)c(F)c1` (centres undefined), -7.52%. As for `O=C(CCc1cn[nH]c1)N1CCC(C2CCN(c3ncccn3)CC2)C1` (centres undefined), the figure is 0.44%. Regarding `CCCN1CCCN(C(=O)C(CC)N2CCCC2=O)CC1` (centres undefined), the cytotoxicity at 70.5 h is -14.5%.
